What was measured:
[1] = Fluorescence of free probe prior to binding to a protein tag; format: physicochemical
CLIP protein tags = assay: Fluorescence activation of probe after incubation with corresponding protein tag (CLIP); format: biochemical; conditions: probe 5 μM, protein tag 10 μM, 37° C., 1 hr
Experimental: Probes were mixed with corresponding protein tags to obtain mixed samples, in which the final probe concentration was 5 μM, and the final protein tag concentration was 10 μM. The mixed samples were incubated 37° C. for 1 hr, fluorescence spectrophotometer was used to detect the change in fluorescence intensity, and the results are shown in Table 1.
From the quantum yield of probe bound to protein tag, after reacting with the protein tags, the probes of the Examples could be detected to have significant signal enhancement in corresponding excitation transmission channels, the fluorescence activation multiple reached several hundreds to a thousand or more, and the brightness was high, which illustrates that after the probes of the Examples are bound to the protein tags, fluorescence of the probes can be activated, and the probes have good fluorescent molecular switching properties. In contrast, though the fluorescence of the reference probes could also be activated, the quantum yield of activated fluorescence was very low, and the brightness was very poor. In particular, in view of comparison results between probe 98 and reference probe 99, probe 101 and reference probe 102, probe 103 and reference probe 104, probe 105 and reference probe 106, probe 107 and reference probe 108, probe 109 and reference probe 110, probe 111 and reference probe 112, probe 114 and reference probe 115, probe 117 and reference probe 118, probe 120 and reference probe 121 in Table 1, for the same fluorescent dye, when the ligand is connected to the electron donor part of the fluorescent dye, the fluorescence activation brightness of the probe is much higher than the reference probe in which ligand is connected to the electron acceptor part of the fluorescent dye.

[2] = Viscosity responsiveness: fluorescence emission spectra of probes in glycerol and methanol; format: physicochemical; conditions: for Emission wavelength: excited at maximum excitation wavelength of each probe; for Fluorescence ratio in glycerol to methanol: probe 1×10^−5 M
Outline: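 Each probe, from a 1×10^−2 M DMSO stock, was diluted to a final 1×10^−5 M in glycerol and in methanol. Fluorescence emission spectra were then recorded under identical conditions at each probe's maximum excitation wavelength.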

[3] = system: HeLa cells with stable expression of protein tags; assay: Labeling of HeLa cells expressing protein tags vs HeLa-WT cells, confocal imaging; format: cell-based; conditions: probe 5 μM, 37° C., 2 hrs
Experimental: HeLa cells with stable expression of protein tags and HeLa-WT cells (HeLa primitive cells, with no protein tag expressed) were implanted in a 14 mm glass-bottom 96-well cell culture plate and stabilized for 10 hrs. Probes 1, 15, 21, 30, 56, 60, 63, 88 were added to the media, respectively and diluted to 5 μMs. The cells were incubated in a carbon dioxide incubator at 37° C. for 2 hrs, and then a Leica TPS-8 confocal microscopy was used to image the fluorescent changes of the labeled cells. […] However, for HeLa cells with protein tags expressed shown by group A in FIG. 12, strong fluorescent signals could be detected, which are nearly 300 times stronger.

SNAP protein tags = target: T1, SNAP protein tags (Homo sapiens, UniProt P16455, A127T/A154D/C150Q/C62A/E30R/G131K/G132T/G153L/K125A/K32I/L33F/M134L/N157G/Q115S/Q116H/R128A/R135S/S151G/S152D/S159E); assay: Fluorescence activation of probe after incubation with corresponding protein tag (SNAP); format: biochemical; conditions: probe 5 μM, protein tag 10 μM, 37° C., 1 hr
T1 sequence (P16455 1-182 E30R/K32I/L33F/C62A/Q115S/Q116H/K125A/A127T/R128A/G131K/G132T/M134L/R135S/C150Q/S151G/S152D/G153L/A154D/N157G/S159E): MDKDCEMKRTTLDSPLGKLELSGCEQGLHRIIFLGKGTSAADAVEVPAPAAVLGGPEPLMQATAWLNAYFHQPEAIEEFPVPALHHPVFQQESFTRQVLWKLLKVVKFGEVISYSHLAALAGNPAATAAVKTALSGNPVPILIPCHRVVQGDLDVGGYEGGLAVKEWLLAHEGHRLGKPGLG
Outline: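 Probe (5 μM final) mixed with CLIP or SNAP protein tag (10 μM final) and incubated 1 hr at 37° C. Fluorescence intensity change measured by fluorescence spectrophotometer, with quantum yield of tag-bound probe determined.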

Row | Quantum yield of free probe [1] | Emission wavelength [2] | Fluorescence ratio in glycerol to methanol [2] | Fluorescence activation multiple (SNAP protein tags) | Quantum yield of probe bound to protein tag (SNAP protein tags) | Structure (SMILES) | Fluorescence activation multiple (CLIP protein tags) | Quantum yield of probe bound to protein tag (CLIP protein tags) | Fluorescence signal in HeLa-WT cells (no protein tag expressed) [3] | Fluorescent signal in HeLa cells with protein tags expressed, relative to HeLa-WT [3]
1 | <0.001 | 610 nm | 998 |  |  | CN(CCOC(=O)NCc1ccc(COc2nccc(N)n2)cc1)c1cc2sc(/C=C(\C#N)c3nc4ccccc4s3)cc2s1 [probe 29] | 621 | 0.33 |  | 
2 | <0.001 | 570 nm | 1125 | 535 | 0.55 | CN(CCOC(=O)NCc1ccc(COc2nc(N)nc3[nH]cnc23)cc1)c1ccc2cc(/C=C(\C#N)C(=O)OC(C)(C)C)sc2c1 [probe 30] |  |  | no corresponding fluorescence signal was detected | ~300 times
3 | <0.001 | 570 nm | 1774 |  |  | CN(CCOC(=O)NCc1ccc(COc2nccc(N)n2)cc1)c1ccc2cc(/C=C(\C#N)C(=O)OC(C)(C)C)sc2c1 [probe 34] | 857 | 0.48 |  | 
4 | <0.001 | 603 nm | 752 |  |  | CN(CCOC(=O)NCc1ccc(COc2nccc(N)n2)cc1)c1ccc2nc(/C=C(\C#N)C(=O)OC(C)(C)C)oc2c1 [probe 45] | 958 | 0.29 |  | 
5 | <0.001 | 625 nm | 401 |  |  | CN(CCOC(=O)NCc1ccc(COc2nccc(N)n2)cc1)c1ccc2nc(/C=C(\C#N)C(=O)OC(C)(C)C)sc2c1 [probe 53] | 579 | 0.18 |  | 
6 | <0.001 | 566 nm | 436 | 989 | 0.39 | CN(CCOC(=O)NCc1ccc(COc2nc(N)nc3[nH]cnc23)cc1)c1ccc(C#C/C=C(\C#N)C(=O)OC(C)(C)C)cc1 [probe 56] |  |  | no corresponding fluorescence signal was detected | ~300 times
7 | <0.001 | 566 nm | 762 |  |  | CN(CCOC(=O)NCc1ccc(COc2nccc(N)n2)cc1)c1ccc(C#C/C=C(\C#N)C(=O)OC(C)(C)C)cc1 [probe 57] | 1026 | 0.31 |  | 
8 | 0.0015 | 620 nm | 531 | 486 | 0.73 | CN(CCOC(=O)NCc1ccc(COc2nc(N)nc3[nH]cnc23)cc1)c1ccc2c(c1)sc1cc(/C=C(/C#N)C(=O)OC(C)(C)C)sc12 [probe 63] |  |  | no corresponding fluorescence signal was detected | ~300 times
9 | <0.001 | 620 nm | 217 |  |  | COCCNC(=O)/C(C#N)=C/c1ccc(-c2ccc(N(C)CCOC(=O)NCc3ccc(COc4nccc(N)n4)cc3)cc2)s1 [probe 69] | 491 | 0.27 |  | 
10 | 0.001 | 640 nm | 268 |  |  | COCCNC(=O)/C(C#N)=C/c1cc2cc3sc(N(C)CCOC(=O)NCc4ccc(COc5nccc(N)n5)cc4)cc3cc2s1 [probe 72] | 486 | 0.47 |  | 
11 | 0.0011 | 655 nm | 218 |  |  | CN(CCOC(=O)NCc1ccc(COc2nccc(N)n2)cc1)c1ccc(-c2ccc(/C=C(\C#N)C(=O)OC(C)(C)C)s2)s1 [probe 80] | 349 | 0.38 |  | 
12 | <0.001 | 672 nm | 235 |  |  | CN(CCOC(=O)NCc1ccc(COc2nccc(N)n2)cc1)c1ccc(-c2ccc(/C=C(\C#N)c3nc4ccccc4o3)s2)s1 [probe 81] | 391 | 0.29 |  | 
13 | <0.001 | 681 nm | 241 |  |  | CN(CCOC(=O)NCc1ccc(COc2nccc(N)n2)cc1)c1ccc(-c2ccc(/C=C(\C#N)c3nc4ccccc4s3)s2)s1 [probe 82] | 321 | 0.21 |  | 
14 | <0.001 | 515 nm | 121 |  |  | CC(C)(C)OC(=O)/C(C#N)=C/c1ccc2c(c1)SCCN2CCOC(=O)NCc1ccc(COc2nccc(N)n2)cc1 [probe 84] | 431 | 0.16 |  | 
15 | <0.001 | 575 nm | 109 |  |  | CC1=CC(C)(C)N(CCOC(=O)NCc2ccc(COc3nccc(N)n3)cc2)c2ccc(/C=C(\C#N)C(=O)OC(C)(C)C)cc21 [probe 90] | 541 | 0.28 |  | 
16 | 0.0013 | 612 nm | 163 |  |  | CC1=CC(C)(C)N(CCOC(=O)NCc2ccc(COc3nccc(N)n3)cc2)c2ccc(/C=C(\C#N)c3nc4ccccc4s3)cc21 [probe 91] | 192 | 0.24 |  | 
17 | <0.001 | 645 nm | 431 |  |  | CN(CCOC(=O)NCc1ccc(COc2nccc(N)n2)cc1)c1cc2c(s1)-c1sc(/C=C(/C#N)C(=O)OC(C)(C)C)cc1C2(C)C [probe 95] | 553 | 0.42 |  | 
18 | <0.001 | 675 nm | 125 |  |  | CN(CCOC(=O)NCc1ccc(COc2nccc(N)n2)cc1)c1cc2c(s1)-c1sc(/C=C(/C#N)c3nc4ccccc4o3)cc1C2(C)C [probe 96] | 435 | 0.31 |  | 
19 | <0.001 | 700 nm | 261 |  |  | CN(CCOC(=O)NCc1ccc(COc2nccc(N)n2)cc1)c1cc2c(s1)-c1sc(/C=C(/C#N)c3nc4ccccc4s3)cc1C2(C)C [probe 97] | 812 | 0.23 |  | 

Source: patent publication US11209437B2, “Fluorescent probe and preparation method and use thereof” (Fluorescence Diagnosis (shanghai) Biotech Company Ltd., priority 2016, dated 2021)
